In patent US20170105999A1, “METHOD FOR TREATING DRUG RESISTANT CANCER” (NATIONAL YANG MING UNIVERSITY, priority 2014, published 2017):

Columns and labels:
[1] = system: NCI-H441 cells expressing firefly luciferase; experiment: NCI-H441 firefly luciferase tail vein tumor model, drug combination test; assay type: in vivo, mice; details: cisplatin 1 mg/kg + pemetrexed 1 mg/kg
Method: In the first drug combination test, NCI-H441 cells expressing firefly luciferase (6×10^5 cells/injection) were injected into NOD/SCID mice (4-6 week of age) via the lateral tail vein for tumor establishment. […] Tumor burden from different groups were recorded by caliper. The change in tumor size was expressed as in fold change and plotted over time. Subsequently, we performed another set of drug combination test. […] For lung adenocarcinoma, the standard drug combination is pemetrexed and cisplatin whereas are used gemcitabine and cisplatin for lung squamous carcinoma. […] CL97 cancer cells (1.5×10^6 cells per injection) were injected subcutaneously into NOD/SCID mice to establish in viva tumor model.
In the drug combination test ([…]), NCI-H441 cells expressing firefly luciferase ([…] cells/injection) were injected into NOD/SCID mice (4-6 week of age) via the lateral tail vein for tumor establishment.

[2] = system: CL141; experiment: Cytotoxicity, sulforhodamine B (SRB) assay; assay type: cell-based; details: read-out: IC50 for prochlorperazine metabolites, CL141 parental cells
Method: (§1) Cells were plated in 96-well plates at a density of 2000 cells per well in triplicate. The cells were treated on the third day (to ensure proper plating efficiency and vitality) to indicated agents for 48 hrs. […] Cytotoxicity was assessed using the sulforhodamine B (SRB) assay (23). Briefly, the medium was discarded, and the adherent cells were fixed by 100 μl of cold 10% trichioroacetic acid (w/v) in each well for 1 h at 4° C. After fixation, cells were stained with 100 μl/well of 0.4% (w/v, in 1% acetic acid) SRB solution for 30 min at room temperature, and then washed 5 times with 1% acetic acid. After air-drying, 100 μl of 10 mM Tris base was added to each well and the absorbance was read at 530 nm. Cytotoxicity is expressed as the percent of cells in drug treated wells relative to number of cells in the solvent only control (set to 100%). Each experiment was performed independently at least 2 times in triplicate and cytotoxicity is given as means ±SD.
(§2) A549, A549-ON, CL97, CL141, HCC827, and H441 were lung adenocarcinoma cell lines. CL152, H2170, and H226 were squamous cell carcinoma cell lines. Cell viability was determined by SRB assay. […] To determine whether side population (SP) cells, which represent a cell population with CSC characteristics, exist in NSCLC cell lines, we stained the cells with the fluorescent dye, Hoechst 33342, and analyzed the cells with flow cytometry.

[3] = system: CL152; experiment: Cytotoxicity, sulforhodamine B (SRB) assay; assay type: cell-based; details: read-out: IC50 for prochlorperazine metabolites, CL152 parental cells
Method: as §1, §2

[4] = system: CL141 spheres; experiment: Cytotoxicity at sphere cells, Trypan Blue Exclusion method; assay type: cell-based; details: read-out: IC50 for prochlorperazine metabolites
[5] = system: CL152 spheres; experiment: as above; assay type: cell-based; details: read-out: IC50 for prochlorperazine metabolites
[6] = system: NSCLC cell lines
Method: as §1, §2

[7] = system: CL141; experiment: Clonogenic assay; assay type: cell-based; details: CL141; approximately 1,000 cells seeded, 14 days
Excerpt: […] […] After the treatments, cells were washed with PBS, and the colonies were fixed with fix solution (methanol: acetic acid=3:1) and stained with 0.5% crystal violet in methanol. After removing the crystal violet carefully and rinse with tap water, the colonies were counted manually.

[8] = system: A549 cells; experiment: Senescence, β-galactosidase (SA-β-Gal) activity; assay type: cell-based; details: A549, 24 hours; 1 μM prochlorperazine, 50 μM resveratrol as positive control
Excerpt: EMT also plays a critical role in the regulation of cancer sternness. EMT is characterized by enhanced cell migration and invasion.

Compound | IC50 [2] | IC50 [3] | IC50 [4] | IC50 [5] | Clonogenic assay for prochlorperazine analogs [7] | further results
N.N.[Cl][Pt][Cl] [cisplatin] | – | – | – | – | – | inhibitory effect on tumor growth, cisplatin in combination with pemetrexed vs pemetrexed alone [1]: not significantly different
Clc1ccc2c(c1)N(CCCN1CCNCC1)c1ccccc1S2 [N-desmethyl prochlorperazine] | 5 to 10 µM | ~10 µM | < 5 µM | < 5 µM | – | cytotoxic effect in NSCLC cell lines compared with other metabolites [6]: better cytotoxic effect than other tested metabolites
CC1(C)CCCN1CCCN1c2ccccc2Sc2ccc(Cl)cc21 [NSC 14948] | – | – | – | – | 5-10 μM | –
Oc1ccc(C=Cc2cc(O)cc(O)c2)cc1 [resveratrol] | – | – | – | – | – | β-galactosidase activity (senescence) [8]: increased β-galactosidase activity
CN1CCN(CCCN2c3ccccc3[S+]([O-])c3ccc(Cl)cc32)CC1 (stereo not shown) [Prochlorperazine sulfoxide] | > 20 µM | > 20 µM | 5 to 10 µM | > 10 µM | – | –
CN(C)c1ccc(-c2c3ccccc3nc3ccc(Cl)cc23)cc1 [NSC 406619] | – | – | – | – | 2.5-5 μM | –
C[N+]1([O-])CCN(CCCN2c3ccccc3[S+]([O-])c3ccc(Cl)cc32)CC1 (stereo not shown) [Prochlorperazine sulfoxide 4′-N-oxide] | > 20 µM | > 20 µM | > 10 µM | > 10 µM | – | –
CCN(CC)CCCN1c2ccccc2Sc2ccc(Cl)cc21 [NSC 169470] | – | – | – | – | 5-10 μM | –
CCc1ccc2c(c1)N(CCCN(CCCl)CCCl)c1ccccc1S2 [NSC 166184] | – | – | – | – | 1-2.5 μM | –
